Active and inactive are the calls of the source. No cut-off for these calls is given here.
Key:
Complement C5 [1] = biological target: T1, Complement C5 (Homo sapiens, UniProt P01031); test: Binding affinity to C5a (unknown origin) at 10 uM by FT-IR analysis; details: filed as modulator
[2] = biological target: T2, C5a anaphylatoxin chemotactic receptor 1 (Homo sapiens, UniProt P21730); test: Binding affinity to N-terminal peptide SR3 of C5aR1 (1 to 28 residues)(unknown origin) assessed as dissociation constant by fluorescence based analysis
T2 sequence (P21730 whole entry): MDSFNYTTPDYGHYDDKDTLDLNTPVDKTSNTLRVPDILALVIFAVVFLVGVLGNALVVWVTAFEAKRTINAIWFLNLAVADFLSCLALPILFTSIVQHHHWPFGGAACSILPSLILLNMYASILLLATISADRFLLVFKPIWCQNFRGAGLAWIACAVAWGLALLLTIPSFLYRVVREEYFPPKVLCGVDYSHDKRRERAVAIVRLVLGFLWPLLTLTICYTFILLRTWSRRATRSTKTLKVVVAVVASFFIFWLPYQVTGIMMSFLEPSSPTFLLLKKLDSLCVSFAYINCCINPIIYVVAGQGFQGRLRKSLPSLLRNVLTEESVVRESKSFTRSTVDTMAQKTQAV

Erythrocyte = test: Hemolytic activity against human erythrocytes at 0.19 to 100 uM incubated for 1 hr by absorbance based assay; assay type: toxicity, cell-based; details: dose 0.19-100 µM
[3] = biological target: T3, C5a anaphylatoxin chemotactic receptor 2 (Homo sapiens, UniProt Q9P296); test: Binding affinity to N-terminal peptide SR12 of C5aR2 (6 to 32 residues)(unknown origin) assessed as dissociation constant by fluorescence based analysis
T3 sequence (Q9P296 whole entry, the tested form may be a part): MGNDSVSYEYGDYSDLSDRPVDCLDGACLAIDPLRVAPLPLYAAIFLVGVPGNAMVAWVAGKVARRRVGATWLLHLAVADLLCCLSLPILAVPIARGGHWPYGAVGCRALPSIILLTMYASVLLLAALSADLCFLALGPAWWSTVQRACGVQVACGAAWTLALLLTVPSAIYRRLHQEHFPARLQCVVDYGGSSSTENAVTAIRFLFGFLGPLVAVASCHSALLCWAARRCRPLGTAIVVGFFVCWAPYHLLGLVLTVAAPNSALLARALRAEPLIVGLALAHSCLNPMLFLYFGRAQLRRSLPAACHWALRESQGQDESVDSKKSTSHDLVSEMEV

HEK293 = test: Cytotoxicity against human HEK293 cells assessed as cellular viability at 0.19 to 100 uM incubated for 18 hrs by MTT assay; assay type: toxicity, cell-based; details: hek293, 18 h, dose 0.19-100 µM
Complement C5 [4] = biological target: T1, Complement C5; test: Binding affinity to C5a (unknown origin) at 2 mM by 1H NMR analysis; details: filed as modulator
Complement C5 [5] = biological target: T1, Complement C5; test: Binding affinity to C5a (unknown origin) assessed as change in near-UV CD signature at 50 uM; details: filed as modulator
[6] = biological target: T3, C5a anaphylatoxin chemotactic receptor 2; test: Binding affinity to N-terminal peptide SR13 of C5aR2 (14 to 32 residues)(unknown origin) assessed as dissociation constant by fluorescence based analysis
Complement C5 [7] = biological target: T1, Complement C5; test: Binding affinity to C5a (unknown origin) assessed as dissociation constant incubated for 1 hr by CD analysis
HeLa = test: Cytotoxicity against human HeLa cells assessed as cellular viability at 0.19 to 100 uM incubated for 18 hrs by MTT assay; assay type: toxicity, cell-based; details: dose 0.19-100 µM
[8] = biological target: T2, C5a anaphylatoxin chemotactic receptor 1; test: Binding affinity to N-terminal peptide SR5 of C5aR1 (1 to 28 residues)(unknown origin) assessed as dissociation constant by fluorescence based analysis
Complement C5 [9] = biological target: T1, Complement C5; test: Binding affinity to C5a (unknown origin) assessed as dissociation constant by fluorescence quenching analysis
trypsin = trypsin (Homo sapiens, UniProt P07477+P07478+P35030); test: Induction of trypsin (unknown origin)-mediated proteolysis of compound incubated for 4 hrs by LC-HRMS spectroscopy; assay type: protein assay; details: trypsin (enzyme incubation), read-out: Activity
Complement C5 [10] = biological target: T1, Complement C5; test: Binding affinity to C5a (unknown origin) assessed as tryptophan lifetime by TCSPC analysis (reference value: 2.70 +/- 0.03 nanoseconds); details: filed as modulator

| Activity (Complement C5 [1]) | Activity (Complement C5 [4]) | Activity (Complement C5 [5]) | Kd (Complement C5 [7]) [nM] | Kd (Complement C5 [9]) [nM] | metabolised at 4 h (trypsin) [%] | Time (Complement C5 [10]) [nanoseconds] | Structure (SMILES) | Kd [2] [nM] | Activity (Erythrocyte) | Kd [3] [nM] | Activity (HEK293) | Kd [6] [nM] | Activity (HeLa) | Kd [8] [nM] |
| --- | --- | --- | --- | --- | --- | --- | --- | --- | --- | --- | --- | --- | --- | --- |
| Active | Active | Active | 700 | 880 | 0 |  | CC[C@H](C)[C@H](NC(=O)[C@H](CO)NC(=O)[C@@H](CCC(=O)O)NC(=O)[C@H](CCCNC(=N)N)NC(=O)[C@@H]1CCCN1C(=O)[C@@H](Cc1ccccc1)NC(=O)[C@H](CC(=O)O)NC(=O)[C@@H](CCCNC(=N)N)NC(=O)[C@H](CCCCN)NC(=O)[C@H](Cc1c[nH]c2ccccc12)NC(=O)[C@H](CCSC)NC(=O)[C@@H](CCC(=O)O)NC(=O)[C@H](CC(=O)O)NC(=O)[C@H](CC(C)C)NC(=O)CNC(=O)[C@H]1CCCN1C(=O)[C@H](Cc1ccc(O)cc1)NC(=O)[C@H](CCC(N)=O)NC(=O)[C@@H](CC(=O)O)NC(=O)[C@H](CCCNC(=N)N)NC(=O)[C@@H](NC(=O)[C@H](Cc1cnc[nH]1)NC(=O)[C@@H](CCC(=O)O)NC(=O)[C@H](CC(N)=O)NC(=O)[C@H](CC(C)C)NC(C)=O)C(C)C)C(=O)N[C@@H](CCCNC(=N)N)C(=O)N[C@H](C(=O)N[C@@H](Cc1cnc[nH]1)C(=O)N[C@H](C(=O)N[C@@H](C)C(N)=O)[C@@H](C)O)[C@@H](C)O | 126 | Non-Toxic | 203 | Non-Toxic | 299 | Non-Toxic | 105 |
| Active | Active | Active | 940 | 820 |  | 1.99 | CC[C@H](C)[C@H](NC(=O)[C@H](CO)NC(=O)[C@H](CCC(=O)O)NC(=O)[C@H](CCCNC(=N)N)NC(=O)[C@@H]1CCCN1C(=O)[C@H](Cc1ccccc1)NC(=O)[C@H](CC(=O)O)NC(=O)[C@H](CCCNC(=N)N)NC(=O)[C@H](CCCCN)NC(=O)[C@H](Cc1c[nH]c2ccccc12)NC(=O)[C@H](CCSC)NC(=O)[C@H](CCC(=O)O)NC(=O)[C@H](CC(=O)O)NC(=O)[C@H](CC(C)C)NC(=O)CNC(=O)[C@@H]1CCCN1C(=O)[C@H](Cc1ccc(O)cc1)NC(=O)[C@H](CCC(N)=O)NC(=O)[C@H](CC(=O)O)NC(=O)[C@H](CCCNC(=N)N)NC(=O)[C@@H](NC(=O)[C@H](Cc1cnc[nH]1)NC(=O)[C@H](CCC(=O)O)NC(=O)[C@H](CC(N)=O)NC(=O)[C@H](CC(C)C)NC(C)=O)C(C)C)C(=O)N[C@@H](CCCNC(=N)N)C(=O)N[C@H](C(=O)N[C@@H](Cc1cnc[nH]1)C(=O)N[C@H](C(=O)N[C@@H](C)C(N)=O)[C@@H](C)O)[C@@H](C)O | 126 | Non-Toxic | 203 | Non-Toxic | 299 | Non-Toxic | 105 |

Source: ChEMBL document CHEMBL5576118, “Structure of Designer Antibody-like Peptides Binding to the Human C5a with Potential to Modulate the C5a Receptor Signaling” (J Med Chem, 2024)
